Measured values reported in US8232401B2 (Japan Tobacco Inc., priority 2002, dated 2012).
pIC50: −log10 of the molar value.

Target: T1, HIV integrase (Human immunodeficiency virus type 1 group M subtype B, UniProt P12497, F1332H)
T1 construct: HIV integrase full length gene; made in house; host or cells: Escherichia coli BL21(DE3)
Assay: Determination of enzyme (HIV integrase) inhibitory activity (strand transfer, microtiter plate, absorbance at 450 nm)
Format: biochemical, HIV (Human Immunodeficiency Virus (type 1))
Conditions: recombinant HIV integrase (F185H) expressed in E. coli; donor DNA on streptavidin plate, digoxigenin target DNA; 37° C.

SMILES	pIC50
O=C(O)c1cn(C2CCCC2)c2ccc(Cc3cccc(Cl)c3Cl)cc2c1=O [Example 3-13, 1-Cyclopentyl-6-(2,3-dichlorobenzyl)-4-oxo-1,4-dihydroquinoline-3-carboxylic acid]	7.54
COc1cc(Cc2cccc(Cl)c2Cl)cc2c(=O)c(C(=O)O)cn(CCO)c12 [Example 3-14, 6-(2,3-Dichlorobenzyl)-1-(2-hydroxyethyl)-8-methoxy-4-oxo-1,4-dihydroquinoline-3-carboxylic acid]	7.85
O=C(O)c1cn(CCO)c2ccc(Cc3ccc(F)c(Cl)c3F)cc2c1=O [Example 3-17, 6-(3-Chloro-2,4-difluorobenzyl)-1-(2-hydroxyethyl)-4-oxo-1,4-dihydroquinoline-3-carboxylic acid]	7.89
CCOc1cc2c(cc1Cc1cccc(Cl)c1Cl)c(=O)c(C(=O)O)cn2CCO [Example 3-20, 6-(2,3-Dichlorobenzyl)-7-ethoxy-1-(2-hydroxyethyl)-4-oxo-1,4-dihydroquinoline-3-carboxylic acid]	8.00
O=C(O)c1cn(CCO)c2cc(Cl)c(Cc3cccc(Cl)c3Cl)cc2c1=O [Example 3-21, 7-Chloro-6-(2,3-dichlorobenzyl)-1-(2-hydroxyethyl)-4-oxo-1,4-dihydroquinoline-3-carboxylic acid]	7.52
O=C(O)c1cn(CCO)c2cc(C(F)(F)F)c(Cc3cccc(Cl)c3Cl)cc2c1=O [Example 3-22, 6-(2,3-Dichlorobenzyl)-1-(2-hydroxyethyl)-4-oxo-7-trifluoromethyl-1,4-dihydroquinoline-3-carboxylic acid]	6.10
C[C@@H](CO)n1cc(C(=O)O)c(=O)c2cc(Cc3cccc(Cl)c3F)ccc21 [Example 3-23, (S)-6-(3-Chloro-2-fluorobenzyl)-1-(2-hydroxy-1-methylethyl)-4-oxo-1,4-dihydroquinoline-3-carboxylic acid]	8.14
C[C@H](CO)n1cc(C(=O)O)c(=O)c2cc(Cc3cccc(Cl)c3F)ccc21 [Example 3-24, (R)-6-(3-Chloro-2-fluorobenzyl)-1-(2-hydroxy-1-methylethyl)-4-oxo-1,4-dihydroquinoline-3-carboxylic acid]	7.41
O=C(O)c1cn(CCO)c2c(C(F)(F)F)cc(Cc3cccc(Cl)c3F)cc2c1=O [Example 3-25, 6-(3-Chloro-2-fluorobenzyl)-1-(2-hydroxyethyl)-4-oxo-8-trifluoromethyl-1,4-dihydroquinoline-3-carboxylic acid]	7.16
O=C(O)c1cn(C(CO)CO)c2ccc(Cc3cccc(Cl)c3F)cc2c1=O [Example 3-26, 6-(3-Chloro-2-fluorobenzyl)-1-[2-hydroxy-1-(hydroxymethyl)ethyl]-4-oxo-1,4-dihydroquinoline-3-carboxylic acid]	7.96
N#Cc1cc2c(cc1Cc1cccc(Cl)c1Cl)c(=O)c(C(=O)O)cn2CCO [Example 3-27, 7-Cyano-6-(2,3-dichlorobenzyl)-1-(2-hydroxyethyl)-4-oxo-1,4-dihydroquinoline-3-carboxylic acid]	7.12
CC(C)(C)n1cc(C(=O)O)c(=O)c2cc(Cc3cccc(Cl)c3F)ccc21 [Example 3-33, 1-tert-Butyl-6-(3-Chloro-2-fluorobenzyl)-4-oxo-1,4-dihydroquinoline-3-carboxylic acid]	8.06
COc1cc(Cc2cccc(Cl)c2F)cc2c(=O)c(C(=O)O)cn(CCO)c12 [Example 3-34, 6-(3-Chloro-2-fluorobenzyl)-1-(2-hydroxyethyl)-8-methoxy-4-oxo-1,4-dihydroquinoline-3-carboxylic acid]	7.96
Nc1cc(Cc2cccc(Cl)c2F)cc2c(=O)c(C(=O)O)cn(CCO)c12 [Example 3-35, 8-Amino-6-(3-chloro-2-fluorobenzyl)-1-(2-hydroxyethyl)-4-oxo-1,4-dihydroquinoline-3-carboxylic acid]	7.96
O=C(O)c1cc2c(cc1Cc1cccc(Cl)c1Cl)c(=O)c(C(=O)O)cn2CCO [Example 3-36, 7-Carboxy-6-(2,3-dichlorobenzyl)-1-(2-hydroxyethyl)-4-oxo-1,4-dihydroquinoline-3-carboxylic acid]	7.29
COc1cc(Cc2c(F)ccc(Cl)c2F)cc2c(=O)c(C(=O)O)cn(CCO)c12 [Example 3-37, 6-(3-Chloro-2,6-difluorobenzyl)-1-(2-hydroxyethyl)-8-methoxy-4-oxo-1,4-dihydroquinoline-3-carboxylic acid]	7.96
CN(C)c1cc(Cc2cccc(Cl)c2F)cc2c(=O)c(C(=O)O)cn(CCO)c12 [Example 3-38, 6-(3-Chloro-2-fluorobenzyl)-8-dimethylamino-(2-hydroxyethyl)-4-oxo-1,4-dihydroquinoline-3-carboxylic acid]	7.82
CC(=O)Nc1cc(Cc2cccc(Cl)c2F)cc2c(=O)c(C(=O)O)cn(CCO)c12 [Example 3-39, 8-Acetylamino-6-(3-chloro-2-fluorobenzyl)-1-(2-hydroxyethyl)-4-oxo-1,4-dihydroquinoline-3-carboxylic acid]	7.31

SMILES	pIC50
CCN(CC)c1ccccc1Cc1ccc2c(c1)c(=O)c(C(=O)O)cn2CCO [Example 3-42, 6-(2-Diethylaminobenzyl)-1-(2-hydroxyethyl)-4-oxo-1,4-dihydroquinoline-3-carboxylic acid]	6.14
CC(C)(CO)n1cc(C(=O)O)c(=O)c2cc(Cc3cccc(Cl)c3F)ccc21 [Example 3-43, 6-(3-Chloro-2-fluorobenzyl)-1-(1,1-dimethyl-2-hydroxyethyl)-4-oxo-1,4-dihydroquinoline-3-carboxylic acid]	7.74
CCOc1cc2c(cc1Cc1cccc(Cl)c1F)c(=O)c(C(=O)O)cn2CCO [Example 3-44, 6-(3-Chloro-2-fluorobenzyl)-7-ethoxy-1-(2-hydroxyethyl)-4-oxo-1,4-dihydroquinoline-3-carboxylic acid]	8.02
COc1c(Cc2cccc(Cl)c2F)cc2c(=O)c(C(=O)O)cn(CCO)c2c1OC [Example 3-45, 6-(3-Chloro-2-fluorobenzyl)-7,8-dimethoxy-1-(2-hydroxyethyl)-4-oxo-1,4-dihydroquinoline-3-carboxylic acid]	7.82
CCOc1cc(Cc2cccc(Cl)c2F)cc2c(=O)c(C(=O)O)cn(CCO)c12 [Example 3-47, 6-(3-Chloro-2-fluorobenzyl)-8-ethoxy-1-(2-hydroxyethyl)-4-oxo-1,4-dihydroquinoline-3-carboxylic acid]	8.07
CNc1cc(Cc2cccc(Cl)c2F)cc2c(=O)c(C(=O)O)cn(CCO)c12 [Example 3-48, 6-(3-Chloro-2-fluorobenzyl)-1-(2-hydroxyethyl)-8-methylamino-4-oxo-1,4-dihydroquinoline-3-carboxylic acid]	7.68
CCCOc1cc2c(cc1Cc1cccc(Cl)c1F)c(=O)c(C(=O)O)cn2CCO [Example 3-49, 6-(3-Chloro-2-fluorobenzyl)-1-(2-hydroxyethyl)-4-oxo-7-propyloxy-1,4-dihydroquinoline-3-carboxylic acid]	8.10
CN(C)/C=N/c1cc2c(cc1Cc1cccc(Cl)c1F)c(=O)c(C(=O)O)cn2CCO [Example 3-50, 6-(3-Chloro-2-fluorobenzyl)-7-(dimethylaminomethyleneamino)-1-(2-hydroxyethyl)-4-oxo-1,4-dihydroquinoline-3-carboxylic acid]	7.74
O=C(O)c1cn(CCO)c2c(Oc3ccccc3)cc(Cc3cccc(Cl)c3F)cc2c1=O [Example 3-52, 6-(3-Chloro-2-fluorobenzyl)-1-(2-hydroxyethyl)-4-oxo-8-phenoxy-1,4-dihydroquinoline-3-carboxylic acid]	7.92
CC(C)Oc1cc2c(cc1Cc1cccc(Cl)c1F)c(=O)c(C(=O)O)cn2CCO [Example 3-53, 6-(3-Chloro-2-fluorobenzyl)-1-(2-hydroxyethyl)-7-isopropyloxy-4-oxo-1,4-dihydroquinoline-3-carboxylic acid]	8.10
CCCNc1cc(Cc2cccc(Cl)c2F)cc2c(=O)c(C(=O)O)cn(CCO)c12 [Example 3-54, 6-(3-Chloro-2-fluorobenzyl)-1-(2-hydroxyethyl)-4-oxo-8-propylamino-1,4-dihydroquinoline-3-carboxylic acid]	8.19
CCNc1cc(Cc2cccc(Cl)c2F)cc2c(=O)c(C(=O)O)cn(CCO)c12 [Example 3-55, 6-(3-Chloro-2-fluorobenzyl)-8-ethylamino-1-(2-hydroxyethyl)-4-oxo-1,4-dihydroquinoline-3-carboxylic acid]	8.06
COc1cc(Cc2cccc(Cl)c2F)cc2c(=O)c(C(=O)O)cn([C@@H](C)CO)c12 [Example 3-56, (S)-6-(3-Chloro-2-fluorobenzyl)-1-(2-hydroxy-1-methylethyl)-8-methoxy-4-oxo-1,4-dihydroquinoline-3-carboxylic acid]	7.92
COc1cc(Cc2c(F)ccc(Cl)c2F)cc2c(=O)c(C(=O)O)cn([C@@H](C)CO)c12 [Example 3-57, (S)-6-(3-Chloro-2,6-difluorobenzyl)-1-(2-hydroxy-1-methylethyl)-8-methoxy-4-oxo-1,4-dihydroquinoline-3-carboxylic acid]	7.82
CCCOc1cc(Cc2cccc(Cl)c2F)cc2c(=O)c(C(=O)O)cn(CCO)c12 [Example 3-58, 6-(3-Chloro-2-fluorobenzyl)-1-(2-hydroxyethyl)-4-oxo-8-propyloxy-1,4-dihydroquinoline-3-carboxylic acid]	8.10
CC(C)Oc1cc(Cc2cccc(Cl)c2F)cc2c(=O)c(C(=O)O)cn(CCO)c12 [Example 3-59, 6-(3-Chloro-2-fluorobenzyl)-1-(2-hydroxyethyl)-8-isopropyloxy-4-oxo-1,4-dihydroquinoline-3-carboxylic acid]	8.10
CC[C@@H](CO)n1cc(C(=O)O)c(=O)c2cc(Cc3cccc(Cl)c3F)ccc21 [Example 3-60, (S)-6-(3-Chloro-2-fluorobenzyl)-1-[1-(hydroxymethyl)propyl]-4-oxo-1,4-dihydroquinoline-3-carboxylic acid]	8.26
